Data: patent publication US6472348B1, “Pyridone derivatives and herbicides” (Kumiai Chemical Industry Co., Ltd., priority 1996, dated 2002)

How the values were obtained:
corn (Ze) = assay: Test Example 11: crop plant selectivity by upland field foliage treatment (corn), phytotoxicity; details: upland field foliage treatment, dose 1.6 g ai/10a, 14th day after treatment
Summary of the method: (§1)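 Corn and the weed species were sown together in sand-filled pots and grown in a greenhouse for 2 weeks before foliar treatment. Herbicidal effect was scored on day 14 after treatment against a graded standard scale, with corn phytotoxicity scored alongside.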

pale smartweed (Po) [1] = assay: Test Example 11: crop plant selectivity by upland field foliage treatment (corn), herbicidal effects; type: in vivo; set-up: scale not given here; details: upland field foliage treatment (corn test), dose 1.6 g ai/10a, 14th day after treatment
Summary of the method: as §1

slender amaranth (Am) [2] = assay: as above; type: in vivo; set-up: scale not given here; details: upland field foliage treatment (corn test), dose 1.6 g ai/10a, 14th day after treatment
Summary of the method: as §1

[3] = system: common lambsquarters (Ch); assay: as above; type: in vivo; set-up: scale not given here; details: upland field foliage treatment (corn test), dose 1.6 g ai/10a, 14th day after treatment
Summary of the method: as §1

China jute (Ab) [4] = assay: Test Example 5: crop plant selectivity by upland field soil treatment (wheat), herbicidal effects; type: in vivo; set-up: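 grade of growth control; 5 = at least 90%; 4 = 70 to 90%; 3 = 50 to 70%; 2 = 30 to 50%; 1 = 10 to 30%; 0 = under 10%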; details: dose 6.3 g ai/10a, 21st day after application
Summary of the method: (§2)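 A greenhouse pot test in which wheat and weeds share sand-filled pots; after the soil application, damage is graded against set standards three weeks later.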

[5] = system: common lambsquarters (Ch); assay: as above; type: in vivo; set-up: scale not given here; details: dose 6.3 g ai/10a, 21st day after application
Summary of the method: as §2

pale smartweed (Po) [6] = assay: Test Example 9: crop plant selectivity by upland field foliage treatment (wheat), herbicidal effects; type: in vivo; set-up: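 grade of growth control; 5 = at least 90%; 4 = 70 to 90%; 3 = 50 to 70%; 2 = 30 to 50%; 1 = 10 to 30%; 0 = under 10%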; details: dose 1.6 g ai/10a, 14th day after treatment
Summary of the method: (§3)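 Wheat and broadleaf weeds were sown together in sand-filled pots and grown for 2 weeks in a greenhouse before foliar treatment. Herbicidal effect on weeds and phytotoxicity to wheat were scored visually against set grading standards on day 14 after treatment, with plants kept in the greenhouse.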

China jute (Ab) [7] = assay: as above; type: in vivo; set-up: scale not given here; details: dose 1.6 g ai/10a, 14th day after treatment
Summary of the method: as §3

slender amaranth (Am) [8] = assay: as above; type: in vivo; set-up: scale not given here; details: dose 1.6 g ai/10a, 14th day after treatment
Summary of the method: as §3

[9] = system: common lambsquarters (Ch); assay: as above; type: in vivo; set-up: scale not given here; details: dose 1.6 g ai/10a, 14th day after treatment
Summary of the method: as §3

Cn1c(C(F)(F)F)ccc(-c2c(F)cc(Cl)c3occc23)c1=O [Compound No. 4-28, 3-(7-chloro-5-fluorobenzofuran-4-yl)-1-methyl-6-trifluoromethyl-2-(1H)-pyridone]
Phytotoxicity Ze (corn (Ze)): 2 | Herbicidal effects Po (pale smartweed (Po) [1]): 5 | Herbicidal effects Am (slender amaranth (Am) [2]): 5 | Herbicidal effects Ch [3]: 5 | Herbicidal effects Ab (China jute (Ab) [4]): 5 | Herbicidal effects Ch [5]: 5 | Herbicidal effects Po (pale smartweed (Po) [6]): 5 | Herbicidal effects Ab (China jute (Ab) [7]): 5 | Herbicidal effects Am (slender amaranth (Am) [8]): 5 | Herbicidal effects Ch [9]: 5
